According to patent US8217031B2, “Heteroaryl derivatives” (Nippon Shinyaku Co., Ltd., priority 2007, dated 2012):
Counter-ions that a name gives are not always drawn.

Assays:
[1] = tested on: rats under anesthesia; assay: Measurement of urine leak point pressure in rats under anesthesia; type: in vivo, rat; details: intravenous administration of not more than 10 mg/kg; female rats, urethane anesthesia, thoracic spine cut at T8 to T9
Procedure: Measurement of Urine Leak Point Pressure in Rats Under Anesthesia Under anesthesia with urethane (1.2 g/kg; subcutaneous administration), the thoracic spine of female rats of 8 to 12 weeks of age (Japan SLC Inc.) was cut at the level of T8 to T9 so that the micturition reflex was made to disappear, then the abdomen was subjected to a median incision to expose the bladder and then a cannula was inserted into the bladder. An appropriate amount (ca. 0.4 mL) of a physiological saline was previously infused into the bladder, both sides of the bladder were gradually pressed with two cotton buds and the inner pressure of the bladder when the physiological saline solution leaked out from the urethral orifice was measured as a pressure upon leakage of urine. The measurement was repeated several times until the measured values became stable and, after that, the test compound was intravenously administered and a pharmacological effect of the test compound was evaluated.

[2] = biological target: T1, [3H]norepinephrine re-uptake in synaptosome (Rattus norvegicus, UniProt Q9WTR4); assay: Inhibition of norepinephrine reuptake in rat cerebral cortex synaptosome; type: biochemical; details: Ki calculated from IC50 and Kd, read-out: Norepinephrine Reuptake Inhibiting Activity, Ki value
T1 construct: to give a synaptosome solution; from tissue; host or cells: rat cerebral cortex synaptosomes (male SD rats)
Procedure: (§1) Experiments for Inhibition of Serotonin Reuptake and Experiments for Inhibition of Norepinephrine Reuptake
(§2) Cerebral cortex of male SD rats (JAPAN SLC Inc.), over six weeks of age was excised and a 0.32M sucrose solution was added thereto in an amount of 10 mL per gram of the cerebral cortex followed by homogenizing. The homogenized solution was centrifuged, the supernatant thereof was further centrifuged at high speed and, to the resulting pellets, a PSS solution (pH 7.4; comprising 150 mM of NaCl, 4 mM of KCl, 1 mM of MgCl2, 2.5 mM of HEPES, 0.9 mg/mL of glucose, 0.176 mg/mL of ascorbic acid and 1 mM of pargylin) was added in an amount of 10 mL per gram of the pellets to give a synaptosome solution. A compound to be tested (100 μL) was added to 100 μL of the synaptosome solution and 700 μL of a 50 mM Tris buffer (pH 7.4; trihydroxylaminomethane) followed by subjecting to pre-incubation at 37° C. for 5 minutes. After the pre-incubation, 100 μL of [^3H]serotonin or [^3H]norepinephrine diluted to 10 nM and 20 nM, respectively, with a Tris buffer was added thereto followed by incubating at 37° C. for 5 minutes.
(§3) Synaptosome was recovered on a GF/B filter using a cell harvester and further washed three times using a washing solution (50 mM Tris buffer; pH 7.4; 4° C.). The filter was transferred to a vial, a scintillator was added thereto and the radiation activity was measured using a liquid scintillation counter.
(§4) Incidentally, the non-specific reaction was defined as the radiation activity under ice-cooling (4° C.) and the difference between the total radiation activity and the radiation activity under the non-specific reaction was adopted as the radiation activity specifically re-uptaken in the synaptosome. IC50 value was determined from the re-uptake inhibition rate in the presence of a test compound and, from IC50 value and the Kd value of [^3H]serotonin or [^3H]norepinephrine, Ki value of the test compound showing a re-uptake inhibiting activity of serotonin or norepinephrine, respectively, was calculated.

[3] = biological target: T2, [3H]serotonin re-uptake in synaptosome (Rattus norvegicus, UniProt P31652); assay: Inhibition of serotonin reuptake in rat cerebral cortex synaptosome; type: biochemical; details: Ki calculated from IC50 and Kd, read-out: Serotonin Reuptake Inhibiting Activity, Ki value
T2 construct: to give a synaptosome solution; from tissue; host or cells: rat cerebral cortex synaptosomes (male SD rats)
Procedure: as §1, §2, §3, §4

T1 sequence (Q9WTR4 1-597): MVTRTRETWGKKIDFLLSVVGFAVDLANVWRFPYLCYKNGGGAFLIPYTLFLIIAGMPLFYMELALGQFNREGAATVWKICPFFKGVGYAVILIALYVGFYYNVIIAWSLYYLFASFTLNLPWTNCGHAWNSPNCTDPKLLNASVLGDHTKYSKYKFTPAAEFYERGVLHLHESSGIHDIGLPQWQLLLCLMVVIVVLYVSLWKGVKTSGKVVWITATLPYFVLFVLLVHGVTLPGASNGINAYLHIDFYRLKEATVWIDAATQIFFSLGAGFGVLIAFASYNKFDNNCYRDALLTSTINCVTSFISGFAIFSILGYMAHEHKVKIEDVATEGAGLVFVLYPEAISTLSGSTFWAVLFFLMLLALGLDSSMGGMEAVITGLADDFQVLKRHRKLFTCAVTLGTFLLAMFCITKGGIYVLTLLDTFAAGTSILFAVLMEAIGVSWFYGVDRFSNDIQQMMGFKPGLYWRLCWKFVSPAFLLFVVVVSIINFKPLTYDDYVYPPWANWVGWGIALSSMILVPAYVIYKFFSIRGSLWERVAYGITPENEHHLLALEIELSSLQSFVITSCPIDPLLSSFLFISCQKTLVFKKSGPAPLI
T2 sequence (P31652 whole entry): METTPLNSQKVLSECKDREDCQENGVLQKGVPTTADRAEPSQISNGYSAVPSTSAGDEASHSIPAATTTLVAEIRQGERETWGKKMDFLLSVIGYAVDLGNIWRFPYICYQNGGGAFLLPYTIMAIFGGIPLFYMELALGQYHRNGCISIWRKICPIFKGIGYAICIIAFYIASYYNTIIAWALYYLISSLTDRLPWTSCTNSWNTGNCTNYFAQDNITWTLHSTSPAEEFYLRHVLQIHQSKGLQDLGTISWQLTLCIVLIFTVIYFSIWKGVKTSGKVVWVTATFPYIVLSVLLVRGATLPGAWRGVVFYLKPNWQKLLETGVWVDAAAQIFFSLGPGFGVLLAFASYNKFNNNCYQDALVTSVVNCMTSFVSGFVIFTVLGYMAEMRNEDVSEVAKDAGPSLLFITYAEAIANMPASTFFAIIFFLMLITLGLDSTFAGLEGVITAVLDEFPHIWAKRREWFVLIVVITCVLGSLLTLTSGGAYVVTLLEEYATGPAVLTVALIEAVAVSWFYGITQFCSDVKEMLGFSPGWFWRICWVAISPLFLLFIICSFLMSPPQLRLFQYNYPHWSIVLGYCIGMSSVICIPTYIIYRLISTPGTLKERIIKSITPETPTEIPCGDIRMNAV

SMILES | Ki [2] | Ki [3] | leak point pressure (pressure upon leakage of urine) [1]
CN1Cc2ccsc2C(Oc2cccc3ccccc23)C1 (stereo not shown) [Example 2, 5-Methyl-7-(naphthalen-1-yloxy)-4,5,6,7-tetrahydrothieno[3,2-c]pyridine] | 478 nM | 27.2 nM | –
CN1Cc2occc2C(Oc2ccc(Cl)c(Cl)c2)C1.Cl (stereo not shown) [Example 21, 4-(3,4-Dichlorophenyloxy)-6-methyl-4,5,6,7-tetrahydrofuro[2,3-c]pyridine hydrochloride] | – | – | raised the leak point pressure
CCN1Cc2sccc2C(Oc2ccc(Cl)c(Cl)c2)C1 (stereo not shown) [Example 24, 4-(3,4-Dichlorophenyloxy)-6-ethyl-4,5,6,7-tetrahydrothieno[2,3-c]pyridine hydrochloride] | 279 nM | 9.5 nM | –
Cc1cc2c(o1)CN(C)CC2Oc1ccc(Cl)c(Cl)c1 (stereo not shown) [Example 57, 4-(3,4-Dichlorophenyloxy)-2,6-dimethyl-4,5,6,7-tetrahydrofuro[2,3-c]pyridine hydrochloride] | 244 nM | 14.1 nM | –
CN1Cc2occc2C(Oc2ccc(Br)c(Cl)c2)C1 (stereo not shown) [Example 66, 4-(4-Bromo-3-chlorophenyloxy)-6-methyl-4,5,6,7-tetrahydrofuro[2,3-c]pyridine hydrochloride] | 484 nM | 3.9 nM | –
Cc1cc2c(o1)CN(C)CC2Oc1ccc(Cl)c2ccccc12 (stereo not shown) [Example 84, 4-(4-Chloronaphthalene-1-yloxy)-2,6-dimethyl-4,5,6,7-tetrahydrofuro[2,3-c]pyridine hydrochloride] | 207 nM | 7.9 nM | –
Cc1cc2c(s1)CN(C)CC2Oc1ccc(Br)c(Br)c1 (stereo not shown) [Example 98, 4-(3,4-Dibromophenyloxy)-2,6-dimethyl-4,5,6,7-tetrahydrothieno[2,3-c]pyridine hydrochloride] | 455 nM | 8.6 nM | –
CN1CCc2sccc2C(Oc2cccc3ccccc23)C1 (stereo not shown) [Example 109, 6-Methyl-4-(naphthalen-1-yloxy)-5,6,7,8-tetrahydro-4H-thieno[2,3-d]azepine hydrochloride] | 66.2 nM | 8.9 nM | –
Cc1cc2c(s1)CN(C)CCC2Oc1ccc(C(F)(F)F)cc1.Cl (stereo not shown) [Example 133, 2,7-dimethyl-4-[4-(trifluoromethyl)phenyloxy]-5,6,7,8-tetrahydro-4H-thieno[2,3-c]azepine hydrochloride] | – | – | raised the leak point pressure
Cc1cc2c(s1)CN(C)CCC2Oc1ccc(Br)c(Br)c1 (stereo not shown) [Example 135, 4-(3,4-Dibromophenyloxy)-2,7-dimethyl-5,6,7,8-tetrahydro-4H-thieno[2,3-c]azepine hydrochloride] | – | 5.4 nM | –
Cc1cc2c(o1)CN(C)CCC2Oc1cccc2ccccc12 (stereo not shown) [Example 140, 2,7-Dimethyl-4-(naphthalen-1-yloxy)-5,6,7,8-tetrahydro-4H-furo[2,3-c]azepine] | 8.4 nM | 4.1 nM | –
CN1CCC(Oc2cccc3ccccc23)c2occc2C1 (stereo not shown) [Example 157, 5-Methyl-8-(naphthalen-1-yloxy)-5,6,7,8-tetrahydro-4H-furo[3,2-c]azepine] | 57.5 nM | 6.8 nM | –
Cc1cc2c(o1)CN(C)CCC2Oc1cccc(Cl)c1Cl (stereo not shown) [Example 163, 4-(2,3-Dichlorophenyloxy)-2,7-dimethyl-5,6,7,8-tetrahydro-4H-furo[2,3-c]azepine] | 12 nM | 3.8 nM | –
CN1CCC(Oc2cccc(Cl)c2Cl)c2occc2C1 (stereo not shown) [Example 168, 8-(2,3-Dichlorophenyloxy)-5-methyl-5,6,7,8-tetrahydro-4H-furo[3,2-c]azepine] | 23.8 nM | 6.6 nM | –
CN1CCC(Oc2ccc(C(N)=O)cc2Cl)c2ccoc2C1 (stereo not shown) [Example 225, 4-(2-Chloro-4-carbamoylphenyloxy)-7-methyl-5,6,7,8-tetrahydro-4H-furo[2,3-c]azepine hydrochloride] | 11.7 nM | 18.3 nM | –

Continued by falling Ki [3], values first:

Ki [2] | Ki [3] | SMILES | leak point pressure (pressure upon leakage of urine) [1]
4 nM | 3.4 nM | Cc1cc2c(s1)CN(C)CCC2Oc1cccc2ccccc12.Cl (stereo not shown) [Example 102, 2,7-Dimethyl-4-(naphthalen-1-yloxy)-5,6,7,8-tetrahydro-4H-thieno[2,3-c]azepine hydrochloride] | raised the leak point pressure
27.5 nM | 3.1 nM | CN1CCC(Oc2cccc(Br)c2Cl)c2ccoc2C1 (stereo not shown) [Example 177, 4-(3-Bromo-2-chlorophenyloxy)-7-methyl-5,6,7,8-tetrahydro-4H-furo[2,3-c]azepine] | –
2 nM | 2.1 nM | Cc1cc2c(s1)CN(C)CCC2Oc1cccc(Cl)c1Cl (stereo not shown) [Example 148, 4-(2,3-Dichlorophenyloxy)-2,7-dimethyl-5,6,7,8-tetrahydro-4H-thieno[2,3-c]azepine hydrochloride] | –
1.7 nM | 1.8 nM | CN1CCC(Oc2cccc(Cl)c2Cl)c2ccsc2C1 (stereo not shown) [Example 149, 4-(2,3-Dichlorophenyloxy)-7-methyl-5,6,7,8-tetrahydro-4H-thieno[2,3-c]azepine hydrochloride] | –
5.6 nM | 1.7 nM | CN1CCC(Oc2cccc(Br)c2Cl)c2ccoc2C1.Cl (single isomer, unassigned; (+)) [Example 398, (+)-4-(3-Bromo-2-chlorophenyloxy)-7-methyl-5,6,7,8-tetrahydro-4H-furo[2,3-c]azepine hydrochloride] | raised the leak point pressure
64.4 nM | 1.7 nM | CN1CCC(Oc2ccc(Cl)c(Cl)c2)c2sccc2C1 (stereo not shown) [Example 108, 8-(3,4-Dichlorophenyloxy)-5-methyl-5,6,7,8-tetrahydro-4H-thieno[3,2-c]azepine hydrochloride] | –
21.5 nM | 1.7 nM | Cc1cc2c(o1)CN(C)CCC2Oc1cccc(Br)c1Cl (stereo not shown) [Example 200, 4-(3-Bromo-2-chlorophenyloxy)-2,7-dimethyl-5,6,7,8-tetrahydro-4H-furo[2,3-c]azepine] | –
70.7 nM | 1.2 nM | CN1CCC(Oc2ccc(Cl)c3ccccc23)c2sccc2C1 (stereo not shown) [Example 115, 8-(4-Chloronaphthalen-1-yloxy)-5-methyl-5,6,7,8-tetrahydro-4H-thieno[3,2-c]azepine hydrochloride] | –
3.2 nM | 1 nM | Cc1cc2c(o1)CN(C)CCC2Oc1cccc2ccccc12.Cl (single isomer, unassigned; (+)) [Example 401, (+)-2,7-Dimethyl-4-(naphthalen-1-yloxy)-5,6,7,8-tetrahydro-4H-furo[2,3-c]azepine hydrochloride] | raised the leak point pressure
24.4 nM | 1 nM | CN1CCC(Oc2cccc3ccccc23)c2ccoc2C1 (stereo not shown) [Example 179, 7-Methyl-4-(naphthalen-1-yloxy)-5,6,7,8-tetrahydro-4H-furo[2,3-c]azepine hydrochloride] | –
4.1 nM | 0.9 nM | CN1CCC(Oc2cccc(Cl)c2Cl)c2ccoc2C1 (stereo not shown) [Example 213, 4-(2,3-Dichlorophenyloxy)-7-methyl-5,6,7,8-tetrahydro-4H-furo[2,3-c]azepine hydrochloride] | –
2.4 nM | 0.5 nM | CN1CCC(Oc2cccc(Cl)c2Cl)c2ccoc2C1.Cl (single isomer, unassigned; (+)) [Example 400, (+)-4-(2,3-Dichlorophenyloxy)-7-methyl-5,6,7,8-tetrahydro-4H-furo[2,3-c]azepine hydrochloride] | raised the leak point pressure
